{"source": "patent US8557308B2", "about": "“Andrographis paniculata extract” (Nutrition Science Partners Limited, priority 2007, dated 2013)", "system": "mildly to moderately active ulcerative colitis", "experiment": "Randomized, double-dummy, active controlled 8-week clinical trial in ulcerative colitis", "format": "in vivo, human", "conditions": "week 8", "description": "120 patients with colonoscopy-confirmed mildly to moderately active ulcerative colitis were assigned to two groups (60 patients/group). […] All other medications were excluded. The therapeutic effects were assessed biweekly using a scale similar to the partial Mayo Scoring System, and the clinical symptom score reduction (≧50% reduction in symptoms) was calculated. Scores were then retrospectively calculated using the standard partial Mayo scores (PMS), clinical response (improvement ≧2 points or final score of 0) and remission (≦1 PMS score at week 8). Colonoscopies at the beginning and at the end of treatment were rated with a modified Baron score, and biopsies taken during colonoscopy were graded histologically with a scale of 0-3.", "data": [{"smiles": "Nc1ccc(O)c(C(=O)O)c1", "note": "[Etiasa, 5-amino-2-hydroxybenzoic acid]", "values": [{"measurement": "patients with Baron scores reduced by at least two grades", "setting": "colonoscopy", "result": 42, "unit": "%"}, {"measurement": "clinical response rate (partial Mayo score improvement ≧2 points or final score of 0)", "result": 58, "unit": "%"}]}]}
